# Paper PMC6194023 (Cell Death & Disease, 2018)
# Legend:
# [1] = target: T1, PLK1 (Homo sapiens, UniProt P53350); experiment: kinase activity in vitro; format: biochemical
# [2] = target: T2, PLK2 (Homo sapiens, UniProt Q9NYY3); experiment: kinase activity in vitro; format: biochemical
# T2 construct: made in house; host or cells: T7 phage in E. coli (BL21-derived) or HEK-293 cells
# [3] = target: T3, PLK3 (Homo sapiens, UniProt Q9H4B4); experiment: kinase activity in vitro; format: biochemical
# [4] = target: NEK2 (Homo sapiens, UniProt P51955); experiment: kinase activity in vitro; format: biochemical
# [5] = target: TOPK (Homo sapiens, UniProt Q96KB5); experiment: kinase activity in vitro; format: biochemical
# [6] = target: TTBK1 (Homo sapiens, UniProt Q5TCY1); experiment: kinase activity in vitro; format: biochemical
# [7] = target: TTBK2 (Homo sapiens, UniProt Q6IQ55); experiment: kinase activity in vitro; format: biochemical
# [8] = target: JNK2 (Homo sapiens, UniProt P45984); experiment: kinase activity in vitro; format: biochemical
# [9] = target: ERBB2/HER2 (Homo sapiens, UniProt P04626); experiment: kinase activity in vitro; format: biochemical
# [10] = target: Aurora A (Homo sapiens, UniProt O14965); experiment: kinase activity in vitro; format: biochemical
# [11] = target: FGFR1 (Homo sapiens, UniProt P11362); experiment: kinase activity in vitro; format: biochemical
# [12] = target: EGFR (Homo sapiens, UniProt P00533); experiment: kinase activity in vitro; format: biochemical
# [13] = target: T1, PLK1; experiment: competition binding constant assay
# Protocol: (§3) Kinases were produced in HEK-293 cells and subsequently tagged with DNA for quantitative polymerase chain reaction (qPCR) detection. […] The beads were blocked with excess biotin and washed with blocking buffer (SeaBlock, 1% bovine serum albumin, 0.05% Tween-20, 1 mM dithiothreitol (DTT)). […] The kinase concentration in the eluates was measured by qPCR.
# [14] = target: T2, PLK2; experiment: competition binding constant assay
# Protocol: as §3
# [15] = target: T3, PLK3; experiment: competition binding constant assay
# Protocol: as §3
# [16] = tested on: BT474; experiment: cells; details: Homo sapiens, BT-474, read-out: IC50 proliferation
# Protocol: (§1) The IC50 values were calculated using the GraphPad Prism software, each assay was replicated 3 times.
# [17] = tested on: BT549; experiment: cells; details: Homo sapiens, BT-549, read-out: IC50 proliferation
# Protocol: as §1
# [18] = tested on: HCC1954; experiment: cells; details: Homo sapiens, HCC1954, read-out: IC50 proliferation
# Protocol: as §1
# [19] = tested on: MCF-10A; experiment: cells; details: Homo sapiens, read-out: IC50 proliferation
# Protocol: as §1
# [20] = tested on: MCF-7; experiment: cells; details: Homo sapiens, MCF7, read-out: IC50 proliferation
# Protocol: as §1
# [21] = tested on: MDA-MB-231; experiment: cells; details: Homo sapiens, MDA-MB-231, read-out: IC50 proliferation
# Protocol: as §1
# [22] = tested on: MDA-MB-435; experiment: cells; details: Homo sapiens, MDA-MB-435, read-out: IC50 proliferation
# Protocol: as §1
# [23] = tested on: MDA-MB-436; experiment: cells; details: Homo sapiens, MDA-MB-436, read-out: IC50 proliferation
# Protocol: as §1
# [24] = tested on: MDA-MB-453; experiment: cells; details: Homo sapiens, MDA-MB-453, read-out: IC50 proliferation
# Protocol: as §1
# [25] = tested on: MDA-MB-468; experiment: cells; details: Homo sapiens, MDA-MB-468, read-out: IC50 proliferation
# Protocol: as §1
# [26] = tested on: SKBR-3; experiment: cells; details: Homo sapiens, SK-BR-3, read-out: IC50 proliferation
# Protocol: as §1
# [27] = tested on: TNBC cell lines; experiment: cells; details: Homo sapiens, read-out: IC50 proliferation, range over TNBC cell lines
# Protocol: as §1
# [28] = tested on: ZR-75-1; experiment: cells; details: Homo sapiens, ZR-75-1, read-out: IC50 proliferation
# Protocol: as §1
# [29] = tested on: ZR-75-30; experiment: cells; details: Homo sapiens, ZR-75-30, read-out: IC50 proliferation
# Protocol: as §1
# [30] = tested on: MDA-MB-231; experiment: mitotic catastrophe, nuclear staining; format: cell-based, human; details: MDA-MB-231, 0.5 μM, 30 h
# Protocol: (§2) Then treated tumor cells were washed with PBS and stain with Hoechst 33342 in the dark for 15 min. Image were taken by fluorescence microscopy for morphological changes after YLT-11 treatment.
# [31] = tested on: MDA-MB-468; experiment: mitotic catastrophe, nuclear staining; format: cell-based, human; details: MDA-MB-468, 0.5 μM, 30 h
# Protocol: as §2
# [32] = tested on: MDA-MB-468 and MDA-MB-231; experiment: centriole number by immunofluorescence (centrin 2, γ-tublin); format: cell-based, human; details: 24 h
# Protocol: Tumor cells were seeded in Millicell EZ SLIDE 8 well glass slide (Millipore, Ireland) at the density of 2 × 10^4 per well. […] Then cells were incubated with primary antibody overnight at 4 ℃ after blocked with 1% BSA. Goat anti-rabbit and goat anti-mouse secondary antibodies conjugated to FITC and […] were used to detect primary antibodies. Cell nucleuses were stained with DAPI. Images were taken using a Leica cofocusing microscope.
# [33] = tested on: MDA-MB-468 tumor xenograft; details: MDA-MB-468 xenograft, 90 mg/kg p.o. every day
# [34] = tested on: MDA-MB-231 tumor xenograft; details: MDA-MB-231 xenograft, 90 mg/kg p.o. every day
# [35] = tested on: breast xenograft models; experiment: breast tumor xenograft models (overall, tolerability); format: in vivo, BALB/c nude mice
# [36] = sub-acute toxicity test; format: in vivo, BALB/c mice; details: single oral dose 1 g/kg, observed 15 days
# Excerpt: Then blood of the mice was obtained for serum biochemistry and hematological analysis using a Hitachi 7200 Blood Chemistry Analyzer and a Nihon Kohdern MEK-5216K Automatic Hematology Analyzer. The heart, liver, spleen, lung and kidney were fixed and routinely processed and embedded in paraﬃn for hematoxylin and eosin (H&E) staining analysis.
# [37] = tested on: MCF-7 tumor xenograft; details: MCF-7 xenograft, 90 mg/kg p.o. every day
# [38] = tested on: MDA-MB-231 xenografts; experiment: immunohistochemical analysis of tumor tissues; details: MDA-MB-231 tumor tissue
# Excerpt: Tumor tissues obtained from the animal models were immersed in 4% paraformaldehyde. After washing with running tap water overnight, the tissues dehydrated trough a serial alcohol gradient and embedded in paraffin, Paraffin-embedded tumor sections were stained with primary antibodies (Ki67, cleaved caspase-3, p21, CDC25C, CyclinB1) using the DAB Detection Kit. The images were captured with a Carl Zeiss digital camera attached to a light microscope.
# T1 sequence (P53350 whole entry): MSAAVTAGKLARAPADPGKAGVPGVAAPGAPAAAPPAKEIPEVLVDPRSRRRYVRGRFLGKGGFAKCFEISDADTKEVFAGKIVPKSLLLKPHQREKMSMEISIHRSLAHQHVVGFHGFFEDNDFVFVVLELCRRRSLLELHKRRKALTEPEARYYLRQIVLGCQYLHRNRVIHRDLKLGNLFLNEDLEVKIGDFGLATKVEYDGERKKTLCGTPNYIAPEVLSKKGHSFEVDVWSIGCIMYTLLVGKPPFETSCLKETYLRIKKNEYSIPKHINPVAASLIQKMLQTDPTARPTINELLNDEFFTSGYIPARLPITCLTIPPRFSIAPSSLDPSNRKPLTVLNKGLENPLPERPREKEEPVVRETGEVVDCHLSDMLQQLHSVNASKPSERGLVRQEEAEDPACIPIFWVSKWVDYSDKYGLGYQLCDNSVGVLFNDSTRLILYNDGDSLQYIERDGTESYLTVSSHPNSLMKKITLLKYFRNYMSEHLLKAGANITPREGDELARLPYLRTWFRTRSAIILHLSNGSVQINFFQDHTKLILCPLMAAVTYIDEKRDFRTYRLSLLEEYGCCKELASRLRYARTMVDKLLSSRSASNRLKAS
# T2 sequence (Q9NYY3 whole entry): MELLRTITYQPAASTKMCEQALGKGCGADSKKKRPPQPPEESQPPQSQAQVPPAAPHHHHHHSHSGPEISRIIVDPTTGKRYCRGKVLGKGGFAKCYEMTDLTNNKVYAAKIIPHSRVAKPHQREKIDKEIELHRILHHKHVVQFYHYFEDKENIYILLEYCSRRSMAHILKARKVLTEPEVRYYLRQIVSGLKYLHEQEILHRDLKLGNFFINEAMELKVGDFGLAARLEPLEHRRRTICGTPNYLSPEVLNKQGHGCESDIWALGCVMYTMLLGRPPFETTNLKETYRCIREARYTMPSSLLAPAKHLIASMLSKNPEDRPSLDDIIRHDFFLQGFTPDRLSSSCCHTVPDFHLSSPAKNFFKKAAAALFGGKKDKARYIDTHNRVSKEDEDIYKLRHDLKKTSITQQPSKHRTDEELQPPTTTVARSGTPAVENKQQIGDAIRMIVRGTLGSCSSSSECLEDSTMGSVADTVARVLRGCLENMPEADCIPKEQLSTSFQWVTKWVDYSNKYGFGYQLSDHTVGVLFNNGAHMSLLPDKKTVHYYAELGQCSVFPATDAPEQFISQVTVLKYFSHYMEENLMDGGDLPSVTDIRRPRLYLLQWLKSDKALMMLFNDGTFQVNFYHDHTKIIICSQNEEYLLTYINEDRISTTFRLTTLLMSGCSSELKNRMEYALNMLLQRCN
# T3 sequence (Q9H4B4 whole entry): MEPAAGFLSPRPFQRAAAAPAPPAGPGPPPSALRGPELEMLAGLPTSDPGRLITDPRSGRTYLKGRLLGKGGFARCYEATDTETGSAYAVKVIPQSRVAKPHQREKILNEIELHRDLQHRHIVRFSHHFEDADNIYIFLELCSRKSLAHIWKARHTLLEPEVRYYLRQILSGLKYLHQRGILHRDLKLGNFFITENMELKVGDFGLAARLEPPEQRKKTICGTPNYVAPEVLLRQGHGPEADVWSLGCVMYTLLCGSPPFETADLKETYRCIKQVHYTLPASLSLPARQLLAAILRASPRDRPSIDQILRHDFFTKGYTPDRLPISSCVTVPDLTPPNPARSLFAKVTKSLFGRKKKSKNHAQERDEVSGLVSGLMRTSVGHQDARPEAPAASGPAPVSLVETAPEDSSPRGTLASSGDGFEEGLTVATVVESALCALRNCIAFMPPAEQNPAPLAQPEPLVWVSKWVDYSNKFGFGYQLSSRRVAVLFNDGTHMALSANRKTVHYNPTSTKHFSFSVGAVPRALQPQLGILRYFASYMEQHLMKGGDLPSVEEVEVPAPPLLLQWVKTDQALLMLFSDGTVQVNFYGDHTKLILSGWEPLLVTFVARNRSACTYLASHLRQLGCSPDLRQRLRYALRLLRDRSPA
# Chain of Aurora A (O14965 whole entry): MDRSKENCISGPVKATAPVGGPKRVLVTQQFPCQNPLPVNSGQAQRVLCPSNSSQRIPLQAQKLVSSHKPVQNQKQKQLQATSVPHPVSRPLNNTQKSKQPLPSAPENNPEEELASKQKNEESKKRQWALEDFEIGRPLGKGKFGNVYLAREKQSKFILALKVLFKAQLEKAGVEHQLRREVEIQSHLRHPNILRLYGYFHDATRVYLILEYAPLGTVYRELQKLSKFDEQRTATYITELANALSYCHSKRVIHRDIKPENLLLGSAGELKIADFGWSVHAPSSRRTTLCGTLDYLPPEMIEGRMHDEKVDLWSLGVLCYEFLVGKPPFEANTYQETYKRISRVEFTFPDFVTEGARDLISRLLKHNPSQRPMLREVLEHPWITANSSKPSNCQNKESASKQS
# Chain of NEK2 (P51955 whole entry): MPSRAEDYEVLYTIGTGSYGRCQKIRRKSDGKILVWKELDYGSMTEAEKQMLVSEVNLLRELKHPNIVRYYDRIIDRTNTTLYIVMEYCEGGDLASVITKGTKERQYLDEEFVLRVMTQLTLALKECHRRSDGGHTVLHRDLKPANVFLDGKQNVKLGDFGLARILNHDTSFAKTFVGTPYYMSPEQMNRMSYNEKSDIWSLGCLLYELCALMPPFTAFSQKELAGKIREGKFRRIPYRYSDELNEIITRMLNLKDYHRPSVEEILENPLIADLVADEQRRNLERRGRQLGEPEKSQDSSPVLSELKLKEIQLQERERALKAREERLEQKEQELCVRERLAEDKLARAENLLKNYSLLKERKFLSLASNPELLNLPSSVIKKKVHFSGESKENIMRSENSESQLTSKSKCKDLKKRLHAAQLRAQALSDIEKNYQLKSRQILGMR
# Chain of EGFR (P00533 25-1210): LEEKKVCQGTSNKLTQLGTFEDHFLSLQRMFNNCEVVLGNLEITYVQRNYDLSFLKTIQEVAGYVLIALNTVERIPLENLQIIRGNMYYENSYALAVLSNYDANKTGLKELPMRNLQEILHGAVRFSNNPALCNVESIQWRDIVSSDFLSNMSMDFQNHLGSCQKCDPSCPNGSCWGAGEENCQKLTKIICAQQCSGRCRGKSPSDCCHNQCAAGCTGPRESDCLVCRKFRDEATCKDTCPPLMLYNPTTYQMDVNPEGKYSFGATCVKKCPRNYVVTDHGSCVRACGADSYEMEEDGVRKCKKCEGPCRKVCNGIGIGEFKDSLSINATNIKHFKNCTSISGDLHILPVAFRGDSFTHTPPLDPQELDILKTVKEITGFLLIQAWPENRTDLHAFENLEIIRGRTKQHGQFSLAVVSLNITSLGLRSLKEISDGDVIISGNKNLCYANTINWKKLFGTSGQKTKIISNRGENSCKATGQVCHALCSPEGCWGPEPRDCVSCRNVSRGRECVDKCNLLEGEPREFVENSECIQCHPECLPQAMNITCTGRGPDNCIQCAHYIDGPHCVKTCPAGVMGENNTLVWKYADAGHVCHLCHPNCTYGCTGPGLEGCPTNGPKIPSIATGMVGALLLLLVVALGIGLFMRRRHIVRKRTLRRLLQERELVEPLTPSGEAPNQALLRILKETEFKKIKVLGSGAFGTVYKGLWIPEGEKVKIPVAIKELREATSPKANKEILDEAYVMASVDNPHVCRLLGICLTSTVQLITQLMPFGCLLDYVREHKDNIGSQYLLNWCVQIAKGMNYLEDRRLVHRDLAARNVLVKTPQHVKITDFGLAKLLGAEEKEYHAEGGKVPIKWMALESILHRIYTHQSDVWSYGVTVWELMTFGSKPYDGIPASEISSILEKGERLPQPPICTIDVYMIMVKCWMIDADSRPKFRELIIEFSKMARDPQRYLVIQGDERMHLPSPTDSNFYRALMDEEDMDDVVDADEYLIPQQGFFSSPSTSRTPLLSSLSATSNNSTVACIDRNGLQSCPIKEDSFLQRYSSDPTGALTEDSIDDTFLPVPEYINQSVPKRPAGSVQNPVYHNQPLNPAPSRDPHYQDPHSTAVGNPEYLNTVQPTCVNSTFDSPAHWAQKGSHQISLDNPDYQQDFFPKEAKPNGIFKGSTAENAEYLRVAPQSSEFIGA
# Chain of JNK2 (P45984 whole entry): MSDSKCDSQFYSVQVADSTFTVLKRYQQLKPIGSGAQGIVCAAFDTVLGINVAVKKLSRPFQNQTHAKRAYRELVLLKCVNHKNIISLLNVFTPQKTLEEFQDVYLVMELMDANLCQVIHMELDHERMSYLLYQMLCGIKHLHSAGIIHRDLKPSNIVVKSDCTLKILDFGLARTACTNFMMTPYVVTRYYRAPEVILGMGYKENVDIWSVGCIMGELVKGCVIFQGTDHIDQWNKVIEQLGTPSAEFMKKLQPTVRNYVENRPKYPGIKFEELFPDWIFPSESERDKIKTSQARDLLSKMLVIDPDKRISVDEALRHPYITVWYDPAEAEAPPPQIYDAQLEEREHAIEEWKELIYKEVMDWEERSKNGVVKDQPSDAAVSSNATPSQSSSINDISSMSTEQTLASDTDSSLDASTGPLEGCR
# Chain of TOPK (Q96KB5 whole entry): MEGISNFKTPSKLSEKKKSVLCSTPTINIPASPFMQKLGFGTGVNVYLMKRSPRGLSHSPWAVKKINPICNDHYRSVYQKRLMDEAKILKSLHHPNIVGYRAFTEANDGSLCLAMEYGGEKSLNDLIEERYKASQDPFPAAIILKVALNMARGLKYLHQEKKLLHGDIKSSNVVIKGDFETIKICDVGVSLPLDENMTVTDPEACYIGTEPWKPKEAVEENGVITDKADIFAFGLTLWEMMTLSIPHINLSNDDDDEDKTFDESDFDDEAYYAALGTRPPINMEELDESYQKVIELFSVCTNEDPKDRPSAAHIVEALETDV
smiles,measurement,setting,value
"CC(=O)Nc1nccc(-c2ccc3c(/C=C/c4ccc(CN(C)C)cc4)n[nH]c3c2)n1 [YLT-11, (E)-N-(4-(3-(4-((dimethylamino)methyl)styryl)-1H-indazol-6-yl)pyrimidin-2-yl)acetamide]",IC50,[1],4780 nM
same,IC50,[2],5730 nM
same,IC50,[3],4120 nM
same,IC50,[4],332 nM
same,IC50,[5],1030 nM
same,IC50,[6],56700 nM
same,IC50,[7],8490 nM
same,IC50,[8],2700 nM
same,IC50,[9],539 nM
same,IC50,[10],468 nM
same,IC50,[11],751 nM
same,IC50,[12],664 nM
same,Kd,[13],> 10000 nM
same,Kd,[14],653 nM
same,Kd,[15],> 10000 nM
same,IC50,[16],163 nM
same,IC50,[17],73 nM
same,IC50,[18],170 nM
same,IC50,[19],> 10000 nM
same,IC50,[20],74 nM
same,IC50,[21],120 nM
same,IC50,[22],154 nM
same,IC50,[23],80 nM
same,IC50,[24],210 nM
same,IC50,[25],68 nM
same,IC50,[26],231 nM
same,IC50,[27],68 to 120 nM
same,IC50,[28],223 nM
same,IC50,[29],184 nM
same,Percentage of cells with mitotic catastrophe,[30],about 58%
same,Percentage of cells with mitotic catastrophe,[31],approximately 67%
same,effect on centriole duplication,[32]; 0.5 μM,centriole duplications were conspicuously suppressed
same,effect on centriole numbers,[32]; low concentrations (≤0.25 μM),increased the centriole numbers
same,tumor inhibition rate,[33],82.5%
same,tumor inhibition rate,[34],76.7%
same,inhibitory rate on tumor growth,"[35]; breast xenograft models, 90 mg/kg (p.o)",more than 60%
same,body weight of experimental animals,"[35]; xenograft mice, 30 and 90 mg/kg p.o. every day",no significant loss in body weight
same,body weight and hematoxylin and eosin staining vs vehicle,[36],no obvious difference
same,serological and hematological analyses vs vehicle,[36],no significant difference
same,tumor inhibition rate,[37],68%
same,cleaved caspase-3-positive cells,[38]; vehicle 12.3 ± 5.1,66 ± 7.3%
same,Ki67-positive cells,[38]; vehicle 78 ± 8.1%,29 ± 6.3%
